Data published in patent publication US7923440B2, “Method of treating or preventing immune mediated disorders and pharmaceutical formulation for use therein” (Pantarhei Bioscience B.V., priority 2002, dated 2011).

Legend:
[1] = intravenous, two adult women, Fishman et al. 1970; cited from earlier work
nonpregnant ewes = conditions: intravenously administered, Levine et al. 1984; cited from earlier work
[2] = test system: ovariectomized adult rats; test: Vaginal cornification bioassay in ovariectomized rats; format: in vivo, rat; conditions: for Number of Rats Exhibiting Estrogenic Response/Number of Rats Treated: sc, Day 7
Source text: Uterine weight increase in the rat is more commonly used as a measure of estrogenicity. […] In the early 1920s it was discovered that follicular fluid from the pig ovary contained a factor(s) that caused cornification/keratinization of the vaginal epithelium in the rat (Allen and Doisy, 1923, JAMA, 81, 819-821; Allen and Doisy, 1924, Am. J. Physiol., 69, 577-588). The so-called vaginal cornification response in rats subsequently provided a bioassay for testing estrogenicity. Vaginal epithelial cornification/keratinization in ovariectomized rats can be produced only by compounds considered to be true estrogens (Jones et al, 1973, Fert. Steril. 24, 284-291). […] Adult intact female CD rats were ovariectomized to induce estrogen deficiency. […] Castrate vaginal smears are indicative that complete ovariectomy was achieved. Treatment commenced following completion of the 7 days of smearing (day 0=first day of dosing). Animals were dosed, once daily for 7 consecutive days. Daily vaginal lavages continued to be obtained for 7 days after dosing was initiated in order to detect vaginal cornification, as an indication of an estrogenic response. A drop of vaginal washings was placed on a glass slide and examined by light microscopy to detect the presence or absence of cornified epithelial cells. Vaginal lavages were obtained prior to dosing on days 0-6 and prior to necropsy on day 7. The vaginal cornification bioassay was performed in order to determine the estrogenic profile of E4 when given subcutaneously (sc) to ovariectomized adult rats. E2 was used as a positive control. The vehicle (10% ethanol/sesame oil) served as the negative control. Steroids were dissolved in absolute ethanol and then brought to the final concentration with sesame oil (10% ethanol in sesame oil). […] The vaginal cornification bioassay was performed in order to determine the estrogenic profile of E4 when given orally (po) to ovariectomized adult rats. EE was used as a positive control. The vehicle (10% ethanol/sesame oil) served as the negative control. […]

[3] = test system: human breast cancer cells (MCF-7); conditions: in vitro cell proliferation, Jozan et al. 1981; cited from earlier work
human ERα = molecular target: T1, human ERα (Homo sapiens, UniProt P03372); test: Competitive steroid binding assay, ERα; conditions: relative preference for binding to ERα protein, from Ki values
T1 sequence (P03372 1-595): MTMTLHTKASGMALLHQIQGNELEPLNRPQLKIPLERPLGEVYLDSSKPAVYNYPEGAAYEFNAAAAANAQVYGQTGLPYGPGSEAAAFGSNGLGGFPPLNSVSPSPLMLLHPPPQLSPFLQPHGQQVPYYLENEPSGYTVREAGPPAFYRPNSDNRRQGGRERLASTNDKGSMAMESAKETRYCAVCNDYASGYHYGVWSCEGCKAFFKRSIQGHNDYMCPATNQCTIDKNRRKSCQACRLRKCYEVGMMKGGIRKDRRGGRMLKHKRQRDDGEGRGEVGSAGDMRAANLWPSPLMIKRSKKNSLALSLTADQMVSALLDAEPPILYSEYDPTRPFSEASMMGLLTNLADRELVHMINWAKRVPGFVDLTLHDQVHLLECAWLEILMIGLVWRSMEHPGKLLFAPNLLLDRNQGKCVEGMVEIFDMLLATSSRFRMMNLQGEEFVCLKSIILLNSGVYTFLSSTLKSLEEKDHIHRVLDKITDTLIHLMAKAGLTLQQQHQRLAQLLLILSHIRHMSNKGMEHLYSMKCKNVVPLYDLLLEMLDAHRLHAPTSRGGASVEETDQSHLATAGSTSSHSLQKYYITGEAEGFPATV

[4] = Single rising oral dose study in healthy postmenopausal volunteers; format: in vivo, human
Procedure: To determine the bioavailability and elimination half-life of estetrol after oral dosing in humans a single rising dosing study was performed in healthy postmenopausal volunteers. Volunteers (n=6) were randomly assigned to 0.1, 1 or 10 mg estetrol and blood samples (18 per volunteer) were obtained over a period of 72 hours.
After thawing the plasma samples, liquid-liquid extraction (hexane and diethyl ether) was employed to prepare the estetrol-containing plasma samples for HPLC analysis (Perkin Elmer 200) and tandem mass spectrometry using a PE Sciex 4000 tandem mass spectrometer and APCI interface. With each sample batch, a calibration curve with 6 calibrators was recorded. The calibration curve was calculated using linear regression (correlation coefficient >0.98), which permitted quantitation of plasma concentrations.

[5] = molecular target: T2, rat uterine nuclear estrogen receptor (Rattus norvegicus, UniProt P06211); conditions: Martucci et al. 1976; cited from earlier work
T2 construct: rat uterine nuclear estrogen receptor; host or cells: rat uterus, nuclear fraction
T2 sequence (P06211 1-600): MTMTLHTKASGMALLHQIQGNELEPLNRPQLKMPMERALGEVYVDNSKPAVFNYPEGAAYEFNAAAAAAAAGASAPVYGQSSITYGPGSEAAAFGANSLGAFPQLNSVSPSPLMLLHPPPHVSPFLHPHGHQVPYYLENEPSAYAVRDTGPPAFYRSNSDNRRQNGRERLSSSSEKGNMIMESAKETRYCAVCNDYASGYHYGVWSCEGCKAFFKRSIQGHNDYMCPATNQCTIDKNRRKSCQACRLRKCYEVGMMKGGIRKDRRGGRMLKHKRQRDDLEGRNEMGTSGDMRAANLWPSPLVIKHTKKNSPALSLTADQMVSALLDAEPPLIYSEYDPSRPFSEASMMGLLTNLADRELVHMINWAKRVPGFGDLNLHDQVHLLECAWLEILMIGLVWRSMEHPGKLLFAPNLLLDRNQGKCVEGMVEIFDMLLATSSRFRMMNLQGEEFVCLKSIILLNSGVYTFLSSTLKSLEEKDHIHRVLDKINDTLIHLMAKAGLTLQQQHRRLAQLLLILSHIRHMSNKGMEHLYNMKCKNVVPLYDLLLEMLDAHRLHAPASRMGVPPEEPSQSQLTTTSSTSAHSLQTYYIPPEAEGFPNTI

In the case of `C[C@]12CC[C@@H]3c4ccc(O)cc4CC[C@H]3[C@@H]1[C@@H](O)[C@@H](O)[C@@H]2O` [E4, 1,3,5 (10)-estratrien-3,15α,16α,17β-tetrol], the excretion [1] is given as “rapidly and completely excreted in urine as the glucosiduronate”, the metabolism [1] is given as “virtually no metabolism except for conjugation took place” and the “potency in uterine vasodilation relative to estriol and 17β-estradiol” value (nonpregnant ewes) is given as 15 to 30 times less potent. For the same molecule, the “onset of vaginal cornification, po versus sc” value ([2]; amount of animals responding at days 1-3, even at low doses (e.g. 0.1 mg/kg/day)) was “faster in po-treated than in sc-treated animals”, the “Number of Rats Exhibiting Estrogenic Response/Number of Rats Treated” value ([2]; 1.0 mg/kg/day, 1 mg/kg/day) was “all rats” and the “Number of Rats Exhibiting Estrogenic Response/Number of Rats Treated” value ([2]; 3.0 mg/kg/day, 3 mg/kg/day) was “all rats”. The “agonistic potency relative to 17β-estradiol” value [3] was 2%, the “Relative ERα/ERβ preference” value (human ERα) was 400% and the half-life ([4]; female, human, plasma, po, human postmenopausal subjects, read-out: elimination half-life) was over 15 h. For the same molecule, the tolerability ([4]; oral single dose 0.1, 1, 10 mg, postmenopausal volunteers) was “Good tolerability”, the AUC dose-linearity ([4]; oral single dose 0.1 to 10 mg, postmenopausal volunteers) was “good dose-linearity” and the “relative binding affinity, of 17β-estradiol (100%)” value [5] was 0.3%.
